Experimental data as given in PubChem BioAssay AID330 (DTP/NCI, 2004).
Values joined by “and” are separate entries in the source; they are usually repeats but may differ in a detail not shown here. Identical values can stand only once. Inconclusive results and toxic doses are left out. The calls were made as follows: active = survival T/C of 150% or more; inactive = T/C below 125% in these data.

Test system: P388 leukemia ip, CD2F1 mice, survival T/C
Experiment: NCI In Vivo Anticancer Drug Screen. Data for tumor model P388 Leukemia (intraperitoneal) in CD2F1 (CDF1) mice
Conditions: endpoint: median survival time, higher = longer survival
Procedure, shortened: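 Mice carrying the transplanted tumor received test compound or vehicle. Survival was recorded in each group, and the value is the treated-group measurement divided by that of the vehicle-treated control group.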

[1] = dose: 50.0 mg/kg/injection, schedule: Q01DX009 (ip), vehicle: Klucel (hydroxypropylcellulose) (HPC)
[2] = dose: 100.0 mg/kg/injection, schedule: Q01DX009 (ip), vehicle: Klucel (hydroxypropylcellulose) (HPC)
[3] = dose: 200.0 mg/kg/injection, schedule: Q01DX009 (ip), vehicle: Klucel (hydroxypropylcellulose) (HPC)
[4] = dose: 100.0 mg/kg/injection, schedule: Q01DX005 (ip), vehicle: Klucel (hydroxypropylcellulose) (HPC)
[5] = dose: 12.5 mg/kg/injection, schedule: Q01DX009 (ip), vehicle: saline with Tween-80
[6] = dose: 25.0 mg/kg/injection, schedule: Q01DX009 (ip), vehicle: saline with Tween-80

Measured: T/C

CSCCC(C(=O)O)N(CCC#N)CCC#N (centres undefined)
inactive: dose: 50.0 mg/kg/injection, schedule: Q01DX005 (ip), vehicle: saline 98 % of control | dose: 100.0 mg/kg/injection, schedule: Q01DX005 (ip), vehicle: saline 102 % of control | dose: 200.0 mg/kg/injection, schedule: Q01DX005 (ip), vehicle: saline 100 % of control

CC(C)OC1=C2CCCCC2=[N+]2CCc3ccccc3C2C1 (centres undefined)
inactive: dose: 6.25 mg/kg/injection, schedule: Q04DX003 (ip), vehicle: saline with Tween-80 107 % of control | dose: 12.5 mg/kg/injection, schedule: Q04DX003 (ip), vehicle: saline with Tween-80 107 % of control | dose: 25.0 mg/kg/injection, schedule: Q04DX003 (ip), vehicle: saline with Tween-80 99 % of control

O=C(OCc1ccccc1)SS(=O)(=O)O
inactive: [1] 95 % of control | [2] 110 % of control | [3] 119 % of control

CCN(CC)C(=O)Nc1ccc(O)c(C(=O)O)c1
inactive: dose: 100.0 mg/kg/injection, schedule: Q01DX001 (ip), vehicle: saline with Tween-80 100 % of control | dose: 200.0 mg/kg/injection, schedule: Q01DX001 (ip), vehicle: saline with Tween-80 100 % of control | dose: 400.0 mg/kg/injection, schedule: Q01DX001 (ip), vehicle: saline with Tween-80 100 % of control

CC1(C)CC(C)(C)c2c1oc(=O)c1c3c(oc(=O)c21)C(C)(C)CC3(C)C
inactive: dose: 3.12 mg/kg/injection, schedule: Q01DX005 (ip), vehicle: Klucel (hydroxypropylcellulose) (HPC) 96 % of control | dose: 6.25 mg/kg/injection, schedule: Q01DX005 (ip), vehicle: Klucel (hydroxypropylcellulose) (HPC) 100 % of control | dose: 12.5 mg/kg/injection, schedule: Q01DX005 (ip), vehicle: Klucel (hydroxypropylcellulose) (HPC) 87 % of control | dose: 25.0 mg/kg/injection, schedule: Q01DX005 (ip), vehicle: Klucel (hydroxypropylcellulose) (HPC) 87 % of control and 90 % of control | [4] 90 % of control and 91 % of control

CCC1(N(C)C)C(=O)NC(=O)N(C)C1=O (centres undefined)
inactive: dose: 60.0 mg/kg/injection, schedule: Q01DX005 (ip), vehicle: Klucel (hydroxypropylcellulose) (HPC) 103 % of control | dose: 120.0 mg/kg/injection, schedule: Q01DX005 (ip), vehicle: Klucel (hydroxypropylcellulose) (HPC) 101 % of control | dose: 2400.0 mg/kg/injection, schedule: Q01DX005 (ip), vehicle: Klucel (hydroxypropylcellulose) (HPC) 104 % of control

CCOC(=O)NC(NC(=O)OCC)C(=O)Nc1cccc2c(OC(=O)C(NC(=O)OCC)NC(=O)OCC)c(N=Nc3ccc(S(=O)(=O)Nc4nccs4)cc3)cc(N=Nc3ccc(S(=O)(=O)Nc4nccs4)cc3)c12 (tested in a mixture with another compound)
inactive: dose: 50.0 mg/kg/injection, schedule: Q01DX005 (ip), vehicle: saline with Tween-80 117 % of control | dose: 100.0 mg/kg/injection, schedule: Q01DX005 (ip), vehicle: saline with Tween-80 112 % of control and 94 % of control

CC1CCCC(C2CC3CCCCC3C(N)[N-]2)[N-]1.CC1CCCC(C2CC3CCCCC3C(N)[N-]2)[N-]1.O=[N+]([O-])O.[Cu+] (centres undefined)
inactive: dose: 25.0 mg/kg/injection, schedule: Q04DX002 (ip), vehicle: suspension in saline 93 % of control | dose: 50.0 mg/kg/injection, schedule: Q04DX002 (ip), vehicle: suspension in saline 97 % of control | dose: 100.0 mg/kg/injection, schedule: Q04DX002 (ip), vehicle: suspension in saline 99 % of control and 97 % of control | dose: 200.0 mg/kg/injection, schedule: Q04DX002 (ip), vehicle: suspension in saline 96 % of control

C1=C(N2CCCC2)C(=[N+]2CCCC2)C(N2CCCC2)=C1
inactive: dose: 3.75 mg/kg/injection, schedule: Q01DX005 (ip), vehicle: saline with Tween-80 101 % of control | dose: 7.5 mg/kg/injection, schedule: Q01DX005 (ip), vehicle: saline with Tween-80 100 % of control | dose: 15.0 mg/kg/injection, schedule: Q01DX005 (ip), vehicle: saline with Tween-80 105 % of control

O=C(O)C1CCCN1 (centres undefined)
inactive: dose: 50.0 mg/kg/injection, schedule: Q01DX009 (ip), vehicle: saline 98 % of control | dose: 100.0 mg/kg/injection, schedule: Q01DX009 (ip), vehicle: saline 100 % of control | dose: 200.0 mg/kg/injection, schedule: Q01DX009 (ip), vehicle: saline 100 % of control

CC/C(=C\c1ccccc1)[N+](=O)[O-]
inactive: [5] 103 % of control | [6] 123 % of control

O=C(NC(CO)C(O)c1ccc(N=Nc2cccc3ccccc23)cc1)C(Cl)Cl (centres undefined)
inactive: dose: 100.0 mg/kg/injection, schedule: Q01DX009 (ip), vehicle: saline with Tween-80 95 % of control | dose: 200.0 mg/kg/injection, schedule: Q01DX009 (ip), vehicle: saline with Tween-80 104 % of control | dose: 400.0 mg/kg/injection, schedule: Q01DX009 (ip), vehicle: saline with Tween-80 104 % of control

COc1cc(OC)cc(C2OC(N)=C(O)C2=O)c1 (centres undefined)
inactive: dose: 50.0 mg/kg/injection, schedule: Q01DX005 (ip), vehicle: Klucel (hydroxypropylcellulose) (HPC) 93 % of control | [4] 90 % of control | dose: 200.0 mg/kg/injection, schedule: Q01DX005 (ip), vehicle: Klucel (hydroxypropylcellulose) (HPC) 91 % of control

Nc1nc(-c2cc3cc(Cl)ccc3o2)cs1
inactive: [1] 101 % of control | [2] 101 % of control | [3] 100 % of control

C[n+]1ccc2ccccc2c1-c1c2ccccc2cc[n+]1C
inactive: dose: 12.5 mg/kg/injection, schedule: Q01DX001 (ip), vehicle: saline 115 % of control | dose: 25.0 mg/kg/injection, schedule: Q01DX001 (ip), vehicle: saline 101 % of control | dose: 50.0 mg/kg/injection, schedule: Q01DX001 (ip), vehicle: saline 99 % of control

C=C1C(=O)C23CCC4C5(C)CCCC4(C4OCCN4C5)C2CCC1C3 (centres undefined)
inactive: dose: 1.0 mg/kg/injection, schedule: Q01DX009 (ip), vehicle: Klucel (hydroxypropylcellulose) (HPC) 104 % of control | dose: 2.0 mg/kg/injection, schedule: Q01DX009 (ip), vehicle: Klucel (hydroxypropylcellulose) (HPC) 107 % of control | dose: 4.0 mg/kg/injection, schedule: Q01DX009 (ip), vehicle: Klucel (hydroxypropylcellulose) (HPC) 95 % of control | dose: 8.0 mg/kg/injection, schedule: Q01DX009 (ip), vehicle: Klucel (hydroxypropylcellulose) (HPC) 95 % of control

O=C(C[n+]1ccccc1)N/N=C/c1ccc([N+](=O)[O-])s1
inactive: dose: 6.25 mg/kg/injection, schedule: Q01DX009 (ip), vehicle: saline with Tween-80 100 % of control | dose: 6.25 mg/kg/injection, schedule: Q01DX009 (ip), vehicle: saline 104 % of control | [5] 96 % of control | dose: 12.5 mg/kg/injection, schedule: Q01DX009 (ip), vehicle: saline 100 % of control | [6] 116 % of control | dose: 25.0 mg/kg/injection, schedule: Q01DX009 (ip), vehicle: saline 100 % of control

Cc1c(Cl)c2ccc(N(C)C)cc2[nH]c1=O
inactive: dose: 50.0 mg/kg/injection, schedule: Q01DX009 (ip), vehicle: acid diluted with saline 95 % of control | dose: 100.0 mg/kg/injection, schedule: Q01DX009 (ip), vehicle: acid diluted with saline 93 % of control | dose: 200.0 mg/kg/injection, schedule: Q01DX009 (ip), vehicle: acid diluted with saline 89 % of control
